{"source": "patent US9795602B2", "about": "“Polycyclic-carbamoylpyridone compounds and their pharmaceutical use” (Gilead Sciences, Inc., priority 2014, dated 2017)", "type_in_all_cases": "cell-based", "key": {"PXR (NR1I2)": {"target": "PXR (NR1I2) (Homo sapiens (Human), UniProt O75469)", "sequence (O75469 whole entry)": "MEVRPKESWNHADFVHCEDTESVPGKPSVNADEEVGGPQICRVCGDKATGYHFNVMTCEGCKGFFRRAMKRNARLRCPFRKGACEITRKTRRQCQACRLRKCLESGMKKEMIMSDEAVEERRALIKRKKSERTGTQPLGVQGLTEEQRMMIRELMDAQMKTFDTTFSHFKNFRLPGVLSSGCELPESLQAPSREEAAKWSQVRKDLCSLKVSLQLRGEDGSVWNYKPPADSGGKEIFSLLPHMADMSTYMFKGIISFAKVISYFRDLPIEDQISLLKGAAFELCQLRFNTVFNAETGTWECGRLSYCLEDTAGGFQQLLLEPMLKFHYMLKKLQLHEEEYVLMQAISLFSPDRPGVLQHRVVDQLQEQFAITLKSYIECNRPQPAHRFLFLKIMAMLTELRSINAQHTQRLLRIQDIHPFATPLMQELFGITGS", "test": "Human PXR activation assay (luciferase reporter, DPX2 cells)", "settings": "human; 15 uM; DPX2 cells; % Emax relative to rifampicin, adjusted for DMSO background; read-out: PXR % inh at 15 uM (adjusted)", "experimental": "Luciferase Reporter Gene Assay.\nA stably transformed tumor cell line (DPX2) was plated on 96-well microtiter plates. […]. The number of viable cells was determined and the reporter gene activity was assessed. […]"}, "HIV-1 E138K/Q148K": {"tested_on": "HIV-1 E138K/Q148K", "settings": "MT2 cells; mean EC50 mutant / mean EC50 wt", "experimental": "(§1) For the antiviral assay utilizing MT-2 cells, 50 μL of 2× test concentration of 3-fold serially diluted compound in culture medium with 10% FBS was added to each well of a 96-well plate (9 concentrations) in triplicate. MT-2 cells were infected with wild-type or mutant variants of HIV-1 for 3 hours using a volume of viral inoculum determined to produce 90% cell killing. Fifty microliters of infected cell suspension in culture medium with 10% FBS (˜1.5×10^4 cells) was then added to each well containing 50 μL of serially diluted compound. The plates with HIV-infected cultures were then incubated at 37° C. for 5 days in the presence of the tested compounds. After 5 days of incubation, 100 μL of CellTiter-Glo™ Reagent (catalog # G7571, Promega Biosciences, Inc., Madison, Wis.) was added to each well. Cell lysis was carried out by incubating at room temperature for 10 min followed by a chemiluminescence read-out.\n(§2) The chemiluminescence readout from the 10-point antiviral dose response was analyzed directly by curve fitting with equation (I) to determine the EC50.\n(§3) where y=Cell Survival, M=maximum cell survival enabled by drug protection, H=baseline cell survival without drug protection, n=Hill coefficient of the antiviral dose response, m=Hill coefficient of the cytotoxicity dose response, and [I]=inhibitor concentration.\n(§4) EC50 values (mean±standard deviation) were calculated from at least three independent experiments performed in triplicate. The fold-change in antiviral activity of tested compounds was calculated as a ratio of the mean EC50 for each mutant virus divided by the mean EC50 of the control WT virus."}, "HIV-1 E92Q/N155H": {"tested_on": "HIV-1 E92Q/N155H", "settings": "MT2 cells; mean EC50 mutant / mean EC50 wt", "experimental": "as §1, §2, §3, §4"}, "HIV-1 G140S/Q148R": {"tested_on": "HIV-1 G140S/Q148R", "settings": "MT2 cells; mean EC50 mutant / mean EC50 wt", "experimental": "as §1, §2, §3, §4"}, "HIV-1 N155H/Q148R": {"tested_on": "HIV-1 N155H/Q148R", "settings": "MT2 cells; mean EC50 mutant / mean EC50 wt", "experimental": "as §1, §2, §3, §4"}}}
{"smiles": "CCN1C(=O)c2c(O)c(=O)c(C(=O)NCc3ccc(F)c(Cl)c3F)cn2[C@H]2CCO[C@H]21", "note": "[Compound 25b]", "values": [{"measurement": "inhibition at 24 h, 15 µM", "setting": "PXR (NR1I2)", "result": 13, "unit": "%"}, {"measurement": "Resistance fold shift E138K/Q148K vs. wild type", "setting": "HIV-1 E138K/Q148K", "result": 2.3, "unit": "fold shift"}, {"measurement": "Resistance fold shift E92Q/N155H vs. wild type", "setting": "HIV-1 E92Q/N155H", "result": 2.2, "unit": "fold shift"}, {"measurement": "Resistance fold shift G140S/Q148R vs. wild type", "setting": "HIV-1 G140S/Q148R", "result": 1.9, "unit": "fold shift"}, {"measurement": "Resistance fold shift N155H/Q148R vs. wild type", "setting": "HIV-1 N155H/Q148R", "result": 2.2, "unit": "fold shift"}]}
{"smiles": "CCN1C(=O)c2c(O)c(=O)c(C(=O)NCc3ccc(F)c(Cl)c3F)cn2[C@H]2CCOC[C@H]21", "note": "[Compound 39]", "values": [{"measurement": "inhibition at 24 h, 15 µM", "setting": "PXR (NR1I2)", "result": 5, "unit": "%"}, {"measurement": "Resistance fold shift E138K/Q148K vs. wild type", "setting": "HIV-1 E138K/Q148K", "result": 1.5, "unit": "fold shift"}, {"measurement": "Resistance fold shift E92Q/N155H vs. wild type", "setting": "HIV-1 E92Q/N155H", "result": 2.3, "unit": "fold shift"}, {"measurement": "Resistance fold shift G140S/Q148R vs. wild type", "setting": "HIV-1 G140S/Q148R", "result": 1.8, "unit": "fold shift"}, {"measurement": "Resistance fold shift N155H/Q148R vs. wild type", "setting": "HIV-1 N155H/Q148R", "result": 2.8, "unit": "fold shift"}]}
